In US20050191710A1, “Method for labeling a membrane-localized protein” (priority 2004, published 2005):

Legend:
[1] = target: T1, BirA (Escherichia coli, UniProt P06709); settings: estimated from initial rate of biotinyl-5′-AMP synthesis; read-out: KM for ATP; cited from earlier work
[2] = target: T1, BirA; settings: read-out: equilibrium dissociation constant; cited from earlier work
[3] = tested on: CFTR; assay: cAMP-stimulated iodide efflux from stably transfected cells; type: cell-based, baby hamster kidney (BHK) cells; settings: for peak iodide efflux: compared to wild-type CFTR
Excerpt: Since CFTR functions as a chloride channel, responsiveness of the tagged channels to PKA was examined by comparing cAMP-stimulated iodide efflux from cells stably transfected with 1) wild-type CFTR, 2) CFTR with a polyhistidine tag, 3) wild-type CFTR bearing both polyhistidine and biotinylation tags or 4) a ΔF508 CFTR construct that was identical to 3) except for deletion of phenylalanine 508. […] Therefore, similar to epitope-tagging of the fourth extracellular loop (Benharouga, et al. (2003) J. Biol. Chem. 278:22079-22089; Schultz, et al. (1997) Am. J. Physiol. Cell Physiol. 273:C2080-C2089), iodide efflux responses to PKA were preserved after insertion of a biotinylation target sequence.
Iodide effluxes were measured using standard methods (Cormet-Boyaka, et al. (2002) Proc. Natl. Acad. Sci. USA 99:12477-12482; Cormet-Boyaka, et al. (2002) Proc. Natl. Acad. Sci. USA 99:12477-12482). Briefly, cells were incubated with iodide loading buffer (136 mM NaI, 3 mM KNO3, 2 mM Ca(NO3)2, 11 mM glucose and 20 mM HEPES, pH 7.4) for 1 hour at room temperature. Extracellular NaI was removed by rinsing with iodide-free efflux buffer (same as loading buffer except NaNO3 replaced NaI). Samples were collected by removing the efflux buffer at 1 minute intervals and replacing it with fresh solution. The first three samples established the baseline efflux rate, then cpt-cAMP was added and samples were collected at 1 minute intervals in the continuous presence of cpt-cAMP for 15 minutes. Iodide was measured using an iodide sensitive electrode (Orion Research, Inc., Boston, Mass., USA) and converted to nmoles released/minutes.

T1 sequence (P06709 whole entry): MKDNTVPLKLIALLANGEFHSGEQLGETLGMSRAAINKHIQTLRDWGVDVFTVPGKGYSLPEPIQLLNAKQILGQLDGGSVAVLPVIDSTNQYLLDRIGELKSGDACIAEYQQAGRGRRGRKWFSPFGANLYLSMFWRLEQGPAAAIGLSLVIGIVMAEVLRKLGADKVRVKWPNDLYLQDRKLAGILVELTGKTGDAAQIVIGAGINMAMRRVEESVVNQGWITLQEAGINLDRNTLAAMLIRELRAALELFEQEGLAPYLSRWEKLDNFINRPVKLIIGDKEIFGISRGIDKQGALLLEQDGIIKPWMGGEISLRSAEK

Which Km [1] does the source give for `Nc1ncnc2c1ncn2[C@@H]1O[C@H](COP(=O)(O)OP(=O)(O)OP(=O)(O)O)[C@@H](O)[C@H]1O` [ATP] here?
Its Km is 3000 µM.

For `O=C(O)CCCC[C@@H]1SC[C@@H]2NC(=O)N[C@@H]21` [biotin], which Kd [2] is on record?
Its Kd is 0.01 to 0.1 µM.

With “CFTR with a polyhistidine tag: CFTR with glycine and ten histidines added to the C-terminus [reference compound]” as the molecule, how does the peak iodide efflux ([3]; cAMP-stimulated) read?
Its peak iodide efflux is “not diminished”.

What does the source list for “wild-type CFTR bearing both polyhistidine and biotinylation tags: CFTR-biotintag with ten histidines at the C-terminus for purification on nickel-NTA beads”?
delay of iodide efflux compared to wild-type CFTR ([3]; cAMP-stimulated): ~1 min; peak iodide efflux ([3]; cAMP-stimulated): not diminished

With “ΔF508CFTR-biotintag: ΔF508 CFTR construct with biotinylation tag, deletion of phenylalanine 508 (disease mutation)” as the molecule, how does the cAMP-stimulated iodide efflux [3] read?
The cAMP-stimulated iodide efflux was “not detected”.
